Measurements taken from US20240131499A1, “BIOMIMETIC CATALYSTS FOR DIVERSE INDUSTRIAL APPLICATIONS IN CHEMICAL REACTIONS” (Wisconsin Alumni Research Foundation, priority 2022, published 2024).
Several values for one entry are separate records, joined by “and”; a condition that tells them apart may be missing. Equal values may be shown once.

Columns and labels:
[1] = Reaction kinetics analysis for lactose hydrolysis; conditions: 100° C.
Procedure: The glass vial was capped to prevent the solvent from evaporation, and the hydrolysis reaction was carried out at 100° C. in an oil bath (120 and 90° C. were used to measure activation energies) with 600-800 rpm stirring. […] 0.105 g (=0.1 mL) of liquid sample solution was collected at each day (every 18-26 h) for 5 days and diluted in 0.399 g (=0.4 mL) of MQ water for the reaction kinetics analysis, and the diluted sample was filtered by syringe filter (20 μm pore) and analyzed by HPLC.
(§1) The chemical concentrations of hydrolyzed lactose solutions were quantified by high performance liquid chromatography (HPLC) analysis. The hydrolyzed solutions with immobilized catalysts were centrifuged (2500 rpm, 20 min) to separate the immobilized catalyst in the aqueous phase solution. 0.105 g (0.1 mL) of the aqueous solution was diluted in 0.399 g (0.4 mL) of Milli-Q water (5 times dilution by volume) to analyze the concentrations of lactose, glucose, galactose, and HMF as one of by-products by glucose degradation. […] The temperature of the HPLC column was maintained at 50° C., and the flow rate of the mobile phase (pH 2 water, acidified by sulfuric acid) was 0.6 mL/min.

[2] = Active site analysis: rate constants for the active sites in lactose hydrolysis; conditions: 100° C.; for rate constant for the active site G1H (kG1H): homogeneous catalyst
Procedure: Addition of Ca(OAc)2 for the investigation of catalytic active sites: The rate constants for H^+ and non-dissociated carboxylic acid from the acid catalysts were determined by combining results from separate reaction kinetics experiments. […] In the presence of different amounts of Ca(OAc)2, the predicted rates can be calculated by using a linear combination of the rate constants and the concentrations of corresponding active sites (equation in FIG. 1C). […] The kG1H value for each biomimetic catalyst was then used to calculate the turnover frequency (TOF=kG1H·[Lactose]0) for comparison of catalytic activities from the engineered biomimetic catalysts in FIG. 2A. […] This analysis accounts for the contributions from the catalytic activity of H^+ (pH effect) and the catalytic activity of the active site (G1H).

[3] = Solubility of the organocatalyst in water; format: physicochemical; conditions: in water at 100° C.; read-out: solubility limit
Text: Immobilization of the organocatalyst on a solid support material can prevent catalyst precipitation by distributing the organocatalyst on the surface of the support. […] Catalytic reaction over the immobilized organocatalyst is analogous to the mechanism of enzymatic reactions. For instance, an organocatalyst complex on a well-defined support with controlled surface properties can act in an analogous fashion as an active site in the channel of an enzyme. Reactants bind on the G1H sites by the interaction between surface functionality on the support and the organocatalyst. Lower loading of catalyst on a support enhances the catalytic activity (FIGS. 16A and 1D) by forming a more uniform distribution of the complex on the support.

[4] = Lactose hydrolysis in the presence of Ca(OAc)2; conditions: 100° C.
Procedure: The glass vial was capped to prevent the solvent from evaporation, and reaction was carried out at 100° C. in an oil bath with 800 rpm stirring. 0.105 g (0.1 mL) of liquid sample solution was collected each day (every 18-26 h) for 5 days and diluted in 0.399 g (0.4 mL) of MQ water for the reaction kinetics analysis. The diluted sample was analyzed by HPLC. Experimentally measured rates at different concentrations of Ca(OAc)2 were analyzed by the kinetic model (Equations 1-4).
as §1

[5] = at 100° C.; extrapolated; cited from earlier work
[6] = homogeneous (non-immobilized) catalyst, amino acids 82-84 mM, 95% confidential intervals

Compound: N[C@@H](Cc1ccc(O)cc1)C(=O)O [tyrosine, L-tyrosine]
- kapp, apparent rate constant for lactose hydrolysis [1, 6]: 0.0004 ± 0.0001 h⁻¹
- kd,app, apparent rate constant for glucose degradation [1, 6]: 1.4e-07 ± 3.22e-06 s⁻¹

Compound: O=C(O)CCC(C(=O)O)N1C(=O)C2C(C1=O)C1(CCC(=O)CCC34CCC(CO)(O3)C3C(=O)N(C(CCC(=O)O)C(=O)O)C(=O)C34)CCC2(CO)O1 (centres unmarked) [PHAH-GA-MAL-H]
- kapp, apparent rate constant for lactose hydrolysis ([1]; 37 mM homogeneous catalyst): 0.0117 ± 0.0004 h⁻¹
- kd,app, apparent rate constant for glucose degradation ([1]; 37 mM homogeneous catalyst): 4.44e-07 ± 1.4e-07 s⁻¹
- kapp, apparent rate constant for lactose hydrolysis ([1]; 70 mM homogeneous catalyst): 0.0103±0.0004 h^−
- kd,app, apparent rate constant for glucose degradation ([1]; 70 mM homogeneous catalyst): 2.78e-07 ± 1.7e-07 s⁻¹
- kapp, apparent rate constant for lactose hydrolysis [1, 6]: 0.0117 ± 0.0004 h⁻¹
- kd,app, apparent rate constant for glucose degradation [1, 6]: 4.44e-07 ± 1.4e-07 s⁻¹
- higher kG1H than GA-MAL-H [2]: 74.2%
- kG1H relative to glutamic acid [2]: 2.3 times
- rate constant for the active site G1H (kG1H) [2]: 0.000681 M⁻¹ s⁻¹
- solubility [3]: ~37000 µM and ~27000 µg/mL

Compound: CC(=O)O [acetic acid]
- kapp, apparent rate constant for lactose hydrolysis [1, 6]: 0.0015 ± 0.0001 h⁻¹
- rate constant for the non-dissociated acetic acid (kAA) ([2]; kapp=kH+·[H^+]+kAA·[AA]): 1.42e-06 M⁻¹ s⁻¹

Compound: O=S(=O)(O)O [sulfuric acid]
- kapp, apparent rate constant for lactose hydrolysis [1, 6]: 0.1615 ± 0.0075 h⁻¹
- kd,app, apparent rate constant for glucose degradation [1, 6]: 1.08e-06 ± 5.42e-06 s⁻¹

Compound: [H+] [H^+]
- rate constant for H^+ (kH+) ([2]; kapp=kH+·[H^+]): 0.0002639 M⁻¹ s⁻¹

Compound: N[C@@H](CCC(=O)O)C(=O)O [glutamic acid, L-glutamic acid]
- kapp, apparent rate constant for lactose hydrolysis [1, 6]: 0.0060 ± 0.0004 h⁻¹
- Rate of lactose hydrolysis ([4]; [Ca(OAc)2] 24 mM): 0.0005 M/h
- kapp, apparent rate constant for lactose hydrolysis ([4]; [Ca(OAc)2] 24 mM): 0.0011 ± 0.0001 h⁻¹
- Rate of lactose hydrolysis ([4]; [Ca(OAc)2]=0 mM): 0.0026 M/h
- kapp, apparent rate constant for lactose hydrolysis ([4]; [Ca(OAc)2]=0 mM): 0.0060 ± 0.0004 h⁻¹
- Rate of lactose hydrolysis ([4]; [Ca(OAc)2]=5 mM): 0.0016 M/h
- kapp, apparent rate constant for lactose hydrolysis ([4]; [Ca(OAc)2]=5 mM): 0.0037 ± 0.0002 h⁻¹
- Rate of lactose hydrolysis ([4]; [Ca(OAc)2]=16 mM): 0.0007 M/h
- kapp, apparent rate constant for lactose hydrolysis ([4]; [Ca(OAc)2]=16 mM): 0.0016 ± 0.0001 h⁻¹
- rate constant for the active site G1H (kG1H) [2]: 0.00029567 M⁻¹ s⁻¹ and 0.000294 M⁻¹ s⁻¹
- pKa,G1H (α-carboxylic acid) [5]: 2.24
- pKa,G2H (side-chain carboxylic acid) [5]: 4.55
- pKa,GNH (amine) [5]: 9.12

Compound: O=C(O)CCC(C(=O)O)N1C(=O)CCC1=O (centres unmarked) [GA-MAL-H]
- suppression of kd,app/kapp compared to glutamic acid [1]: 55.2%
- kapp, apparent rate constant for lactose hydrolysis [1, 6]: 0.0077 ± 0.0002 h⁻¹
- kd,app, apparent rate constant for glucose degradation [1, 6]: 6.11e-07 ± 2.2e-07 s⁻¹
- higher kG1H than kG1H for glutamic acid [2]: 31.9%
- rate constant for the active site G1H (kG1H) [2]: 0.000389 M⁻¹ s⁻¹
